Test results taken from patent publication US12589082B2, “Compositions comprising thymoquinone and additional biologically active compounds” (N.S. OILS LTD., priority 2019, dated 2026).

Test system: NO production by LPS-stimulated cultured murine macrophages
Assay: Inhibition of NO production (Griess nitrite assay) in LPS-stimulated cultured murine macrophages
Assay type: cell-based, murine (ICR mice peritoneal macrophages; RAW264.7)
Details: for inhibition at 0.269 µg/mL: beta-carotene alone at 0.269 μg/ml
Protocol: The aim of this study was to investigate the effect of different combinations of NS oil and carotenoids on the in vitro production of the inflammatory mediator NO by LPS-stimulated cultured murine macrophages.
Macrophage isolation and cell culture—Peritoneal macrophages were collected from the peritoneal cavity of 6-8 week old male ICR mice (Harlan, Israel) that had been given an intraperitoneal injection of 1.5 ml of thioglycollate broth (4%) 4 days before harvest. […] Peritoneal macrophages and murine macrophage cell line RAW264.7 were cultured RPMI 1640 medium containing 10% FCS, 2 mM L-glutamine; 100 U/ml penicillin; 100 μg/ml streptomycin (Beit-Haemek, Israel) in 96-well plates (1×10^6 cells/well) at 37° C. in 5% CO2 atmosphere. Cells were stimulated with LPS (0.1-1 μg/ml) in the presence or absence of NS oil acid and/or one or more of the following carotenoids: astaxanthin, lutein and beta-Carotene. The following stock solutions of each active agent were used to prepare the various dilutions tested: • Cold-pressed NS oil containing 3% thymoquinone and 1.7% free fatty acids (N.S. Oils, Israel). • Lutein 20% (Lycored Ltd., Israel) • Beta-carotene 30% in vegetable oil (Lycored Ltd., Israel) • Astaxanthin oleoresin extracted from microalgae, containing 10% astaxanthin (Algatech, Israel). • Lycopene (present at a concentration of 6.35% in the commercially-available product known as Lyc-O-Mato, obtained from Lycored Ltd., Israel).
The carotenoids were dissolved in DMSO (to a final concentration of 5 mM). The mixture was vortexed and incubated in a water bath at 37° C. (with shaking) for 10 min and then sonicated in a sonicator bath three times for 15 seconds each time. Using this stock solution, the desired concentrations were prepared by the addition of appropriate volumes thereof to warm culture medium.
Appropriate volumes of DMSO (0.1-0.2%) were added to the control tubes and the percent inhibition of NO production in each test tube was calculated in relation to its control.
NO production assay—NO levels in supernatants of cell cultures were determined by assaying nitrite levels using Griess reagent and sodium nitrite as a standard as described in Green, L. C., Wagner, D. A., Glogowski, J., Skipper, P. L., Wishnok, J. S., and Tannenbaum, S. R. (1982) Anal Biochem. 126: 131-138. […]

How did the “inhibition of NO production” value (Example 2 first study, FIG. 8, CBD alone at 0.0075 μg/ml) turn out when `C=C(C)[C@@H]1CCC(C)=C[C@H]1c1c(O)cc(CCCCC)cc1O` [CBD, cannabidiol] was run?
Its value is “did not results in a detectable level of NO inhibition”.

What about the “inhibition of NO production” value (Example 2 second study, FIG. 9 upper, CBD alone at 0.005 μg/ml) of the same compound?
Its value is “measurable inhibition of NO production”.

And the inhibition at 0.01 µg/mL (Mus musculus, Macrophage, read-out: inhibition of NO production)?
The inhibition at 0.01 µg/mL was < 10%.

For `CC1=C(/C=C/C(C)=C/C=C/C(C)=C/C=C/C=C(C)/C=C/C=C(C)/C=C/C2=C(C)C(=O)[C@@H](O)CC2(C)C)C(C)(C)C[C@H](O)C1=O` [astaxanthin], which “inhibition of NO production” value (Example 1 first study, FIG. 1, astaxanthin alone at 0.298 and 0.596 μg/ml, % of maximal inhibition) is on record?
The value was 20-25%.

What about the inhibition at 0.298 µg/mL (Mus musculus, Macrophage, Example 4, text summary, astaxanthin only, 0.298 μg/ml) of the same compound?
Its inhibition at 0.298 µg/mL is ~20%.

What about the inhibition at 0.298 µg/mL (Mus musculus, Macrophage, Example 4 comparative, column 0.0015 μg/ml TQ of high-FFA NS oil dilution, astaxanthin 0.298 μg/ml, agent alone or combined as labelled) of the same compound?
Its inhibition at 0.298 µg/mL is 19.1%.

And the inhibition at 0.298 µg/mL (Mus musculus, Macrophage, Example 4 comparative, column 0.0030 μg/ml TQ of high-FFA NS oil dilution, astaxanthin 0.298 μg/ml, agent alone or combined as labelled)?
The inhibition at 0.298 µg/mL was 21.3%.

What about the inhibition at 0.298 µg/mL (Mus musculus, Macrophage, second study, FIG. 4, astaxanthin alone at 0.298 μg/ml) of the same compound?
The inhibition at 0.298 µg/mL was 19.1%.

What does the source list for `CC1=C(/C=C/C(C)=C/C=C/C(C)=C/C=C/C=C(C)/C=C/C=C(C)/C=C/C2=C(C)CCCC2(C)C)C(C)(C)CCC1` [beta-carotene]?
inhibition at 0.269 µg/mL (Mus musculus, Macrophage, first study, FIG. 3): < 10%; inhibition at 0.538 µg/mL (Mus musculus, Macrophage, first study, FIG. 3, beta-carotene alone at 0.538 μg/ml): < 20%; inhibition at 0.269 µg/mL (Mus musculus, Macrophage, second study, FIG. 6): 3.89%

Which results are given for `CC1=C[C@H](O)CC(C)(C)[C@H]1/C=C/C(C)=C/C=C/C(C)=C/C=C/C=C(C)/C=C/C=C(C)/C=C/C1=C(C)C[C@@H](O)CC1(C)C` [lutein]?
inhibition at 0.284 µg/mL (Mus musculus, Macrophage, second study, FIG. 5, lutein alone at 0.284 μg/ml): 6.96%; inhibition of NO production (first study, FIG. 2, lutein alone at 0.284 μg/ml): did not cause any measurable degree of NO inhibition

How did the inhibition at 0.35 µg/mL (Mus musculus, Macrophage, second study, FIG. 7, lycopene alone at 0.35 μg/ml) turn out when `CC(C)=CCC/C(C)=C/C=C/C(C)=C/C=C/C(C)=C/C=C/C=C(C)/C=C/C=C(C)/C=C/C=C(\C)CCC=C(C)C` [lycopene] was run?
The inhibition at 0.35 µg/mL was 13.5%.
